Each structure is given as a SMILES string.

32 molecules from patent EP4793271A1, “NEUROPROTECTIVE AGENT” (National Center of Neurology and Psychiatry, priority 2023, dated 2025) can be followed below.

In assay [1] the target is T1, nicotinamide phosphoribosyl transferase (NAMPT) (Homo sapiens, UniProt P43490).
T1 construct: purchased Medical & Biological Laboratories Co., Ltd. (MBL)
The assay is described as follows: NAMPT activity measurement (NMN fluorescence detection). Type of assay: biochemical. Conditions: NAMPT recombinant protein, 10 µM Nam; for IC50: read-out: Evaluation on NAMPT inhibitory. An outline of the steps: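 Recombinant NAMPT reacted with 10 µM Nam, 0.5 µM PRPP, 2 µM ATP in Tris pH 7.4 buffer with MgCl2, DTT, BSA; product NMN quantified by fluorescence (ex 421/em 480 nm) after derivatization with 2-acetylbenzofuran. Compounds at 3 nM–10 µM; control-normalized signal used for IC50.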

A further assay concerns the target T2, hSARM1 (Homo sapiens, UniProt Q6SZW1).
T2 sequence (Q6SZW1 28-724): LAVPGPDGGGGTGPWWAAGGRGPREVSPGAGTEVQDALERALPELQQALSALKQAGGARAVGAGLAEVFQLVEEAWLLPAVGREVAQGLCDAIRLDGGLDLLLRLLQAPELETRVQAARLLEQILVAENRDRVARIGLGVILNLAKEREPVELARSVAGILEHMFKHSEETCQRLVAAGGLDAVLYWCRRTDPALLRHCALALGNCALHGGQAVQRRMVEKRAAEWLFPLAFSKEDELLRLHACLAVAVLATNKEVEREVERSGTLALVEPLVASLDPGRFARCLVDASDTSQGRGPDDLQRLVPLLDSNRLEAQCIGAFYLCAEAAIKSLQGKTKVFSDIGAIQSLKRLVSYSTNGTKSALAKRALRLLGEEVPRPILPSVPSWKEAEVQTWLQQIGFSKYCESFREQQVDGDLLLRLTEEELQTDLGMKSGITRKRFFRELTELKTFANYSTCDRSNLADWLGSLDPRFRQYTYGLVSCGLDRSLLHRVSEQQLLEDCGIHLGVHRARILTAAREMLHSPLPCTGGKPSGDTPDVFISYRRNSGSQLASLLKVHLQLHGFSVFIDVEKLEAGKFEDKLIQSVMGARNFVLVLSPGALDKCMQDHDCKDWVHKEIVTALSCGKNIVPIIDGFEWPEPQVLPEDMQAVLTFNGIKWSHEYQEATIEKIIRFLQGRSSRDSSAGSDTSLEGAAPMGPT
As to the kind of experiment: Human SARM1 activity measurement in HEK293 cells transiently transfected with ΔN-hSARM1 (PC6 fluorescent probe). Type of assay: cell-based. The arrangement: expressed in transfected cells; host or cells: HEK293, pcDNA3 expression vector. Conditions: inhibition rate; compound 30 µM; PC6 50 µM; HEK293 cells expressing ΔN-hSARM1; approximately 48 hours from transfection; read-out: Evaluation on hSARM1 inhibitory. In a few lines: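 HEK293 cells in nicotinamide-free DMEM with 5 μM nicotinamide, transiently transfected with mitochondrial-targeting-deleted ΔN-hSARM1; PC6 base-exchange fluorescent probe (50 μM) plus compound (30 μM) added ~8 h post-transfection. Fluorescence (ex 405/em 525 nm) read ~48 h from transfection; inhibition % versus transfected DMSO control, untransfected background subtracted.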

For assay [2], the system named is primary cultured cells of mouse fetus-derived dorsal root ganglia (DRGs). The assay is described as follows: Suppression of axonal degeneration after axotomy in DRG explant culture. The class given is cell-based. The conditions noted are these: minimum concentration at which axonal degeneration was suppressed (DI 0.3 or less), 24 hours after axotomy; for minimal effective concentration: Mus musculus, read-out: Evaluation on protection against degeneration. In a few lines: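 Embryonic ICR mouse DRG explants were cultured 7–8 days in nicotinamide-free neuronal medium with NGF, then axotomized by removing the cell bodies. Compound (100 pM–10 µM final, 0.1% DMSO) was added within 30 min, and neurites were imaged 24 h later. The result is the lowest concentration giving degeneration index ≤0.3.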

T1 sequence (P43490 whole entry, species assumed): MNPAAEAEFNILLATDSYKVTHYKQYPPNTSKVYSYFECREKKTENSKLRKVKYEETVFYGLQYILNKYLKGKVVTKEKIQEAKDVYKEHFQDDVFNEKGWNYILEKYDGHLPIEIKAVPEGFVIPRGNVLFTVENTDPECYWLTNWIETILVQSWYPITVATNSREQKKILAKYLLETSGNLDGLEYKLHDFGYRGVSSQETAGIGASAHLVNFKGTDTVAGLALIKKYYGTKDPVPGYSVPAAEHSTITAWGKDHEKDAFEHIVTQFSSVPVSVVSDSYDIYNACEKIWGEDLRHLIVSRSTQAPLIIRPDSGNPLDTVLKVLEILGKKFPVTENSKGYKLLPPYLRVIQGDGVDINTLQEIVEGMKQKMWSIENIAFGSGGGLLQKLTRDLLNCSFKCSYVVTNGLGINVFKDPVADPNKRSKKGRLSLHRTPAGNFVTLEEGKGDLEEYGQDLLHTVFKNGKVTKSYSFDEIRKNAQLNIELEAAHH

For the molecule `CC(C)CC(=O)Nc1ccc(CNC(=O)c2cccnc2)cn1` [Compound 162], in assay [1], the “Evaluation on NAMPT inhibitory” value was “○”. For the same molecule, the inhibition at 30 µM at hSARM1 was greater than 25%. Also, in assay [2], the minimal effective concentration was no more than 0.01 µM.
`CCC(CC)C(=O)Nc1ccc(CNC(=O)c2cccnc2)cn1` [Compound 163]: in assay [1], the “Evaluation on NAMPT inhibitory” value is “○”. Moreover, on hSARM1, the inhibition at 30 µM was greater than 25%. Besides, the “Evaluation on protection against degeneration” value (shortened to “Evaluation on protection”) in assay [2] is reported as “A (A ≤ 0.01 µM)”.
Turning to `CC(C)CCC(=O)Nc1ccc(CNC(=O)c2cccnc2)cn1` [Compound 164], the IC50 in assay [1] is no less than 100 nM. For the same molecule, the inhibition at 30 µM on hSARM1 is greater than 75%. Besides, in assay [2], the minimal effective concentration was no more than 0.01 µM.
On to `CCC(C)CC(=O)Nc1ccc(CNC(=O)c2cccnc2)cn1` (stereo not drawn) [Compound 165], for which, in assay [1], the “Evaluation on NAMPT inhibitory” value was “○”. Besides, the inhibition at 30 µM at hSARM1 was greater than 75%. In addition, the minimal effective concentration in assay [2] is no more than 0.01 µM.
As to `N#Cc1ccc(/C=C/C(=O)Nc2ccc(CNC(=O)c3cccnc3)cn2)cc1` [Compound 166], the “Evaluation on NAMPT inhibitory” value in assay [1] was “○”. Also, the inhibition at 30 µM on hSARM1 is greater than 75%. Also, in assay [2], the minimal effective concentration was no more than 0.01 µM.
The like results for `O=C(/C=C/c1ccc(C(F)(F)F)cc1)Nc1ccc(CNC(=O)c2cccnc2)cn1` [Compound 167] were, in that order, “○”, greater than 75% and no more than 0.01 µM.
Regarding `O=C(/C=C/c1ccc(OC(F)(F)F)cc1)Nc1ccc(CNC(=O)c2cccnc2)cn1` [Compound 168], the “Evaluation on NAMPT inhibitory” value in assay [1] is on record as “○”. Besides, at hSARM1, the inhibition at 30 µM is greater than 50%. The minimal effective concentration in assay [2] was no more than 0.01 µM.
Take `O=C(CCc1ccc(C(F)(F)F)cc1)Nc1ccc(CNC(=O)c2cccnc2)cn1` [Compound 169]: the “Evaluation on NAMPT inhibitory” value in assay [1] was “○”. Also, the inhibition at 30 µM on hSARM1 was greater than 75%. Further, the minimal effective concentration in assay [2] is no more than 0.01 µM.
Regarding `CCCCC(=O)N(C(=O)CCCC)c1ccc(CNC(=O)c2cccnc2)cn1` [Compound 171], in assay [1], the “Evaluation on NAMPT inhibitory” value is on record as “○”. The inhibition at 30 µM at hSARM1 is greater than 50%. Besides, the minimal effective concentration in assay [2] is no more than 0.01 µM.
As to `CC(C)C(=O)N(C(=O)C(C)C)c1ccc(CNC(=O)c2cccnc2)cn1` [Compound 172], in assay [1], the “Evaluation on NAMPT inhibitory” value is reported as “○”. The inhibition at 30 µM on hSARM1 is greater than 10%. Moreover, the minimal effective concentration in assay [2] was no more than 0.01 µM.
On the same counts, the results for `N#Cc1ccc(CCC(=O)Nc2ccc(CNC(=O)c3cccnc3)cn2)cc1` [Compound 173] are “○”, greater than 75% and 0.01 to 0.1 µM.
On to `N#Cc1ccc(OCC(=O)Nc2ccc(CNC(=O)c3cccnc3)cn2)cc1` [Compound 174], for which, in assay [1], the IC50 is no less than 100 nM. Besides, the inhibition at 30 µM on hSARM1 is greater than 75%. In assay [2], the minimal effective concentration lay within 0.01 to 0.1 µM.
On the same counts, the results for `O=C(COc1cccc(C(F)(F)F)c1)Nc1ccc(CNC(=O)c2cccnc2)cn1` [Compound 175] are no less than 100 nM, greater than 75% and 0.01 to 0.1 µM.
Regarding `O=C(COc1ccc(C(F)(F)F)cc1)Nc1ccc(CNC(=O)c2cccnc2)cn1` [Compound 176], in assay [1], the IC50 is no less than 100 nM. For the same molecule, the inhibition at 30 µM at hSARM1 is greater than 75%. Further, in assay [2], the minimal effective concentration was in the range of 0.01 to 0.1 µM.
With `O=C(Cc1ccc(OCc2ccccc2)cc1)Nc1ccc(CNC(=O)c2cccnc2)cn1` [Compound 177], the IC50 in assay [1] was no less than 100 nM. Moreover, the inhibition at 30 µM on hSARM1 was greater than 75%. Moreover, the minimal effective concentration in assay [2] fell in the range of 0.01 to 0.1 µM.
Turning to `O=C(COc1ccc(OCc2ccccc2)cc1)Nc1ccc(CNC(=O)c2cccnc2)cn1` [Compound 178], the IC50 in assay [1] was no less than 100 nM. Moreover, the inhibition at 30 µM at hSARM1 is greater than 75%. The minimal effective concentration in assay [2] fell in the range of 0.01 to 0.1 µM.
`Cc1ccc(/C=C/C(=O)Nc2ccc(CNC(=O)c3cccnc3)cn2)cc1` [Compound 179]: the “Evaluation on NAMPT inhibitory” value in assay [1] was “○”. On hSARM1, the inhibition at 30 µM was greater than 75%. Also, the minimal effective concentration in assay [2] was no more than 0.01 µM.
As to `COc1ccc(/C=C/C(=O)Nc2ccc(CNC(=O)c3cccnc3)cn2)cc1` [Compound 180], the IC50 in assay [1] was no less than 100 nM. Moreover, the inhibition at 30 µM on hSARM1 was greater than 75%. Further, the minimal effective concentration in assay [2] is no more than 0.01 µM.
As to `CC(C)(C)CC(=O)Nc1ccc(CNC(=O)c2cccnc2)cn1` [Compound 182], in assay [1], the IC50 is no less than 100 nM. At hSARM1, the inhibition at 30 µM is greater than 75%. For the same molecule, the minimal effective concentration in assay [2] was no more than 0.01 µM.
`CC#CC(=O)Nc1ccc(CNC(=O)c2cccnc2)cn1` [Compound 183]: in assay [1], the IC50 is no less than 100 nM. Moreover, the inhibition at 30 µM at hSARM1 was greater than 50%. Further, the minimal effective concentration in assay [2] lay within 0.01 to 0.1 µM.
For the molecule `O=C(C#Cc1ccccc1)Nc1ccc(CNC(=O)c2cccnc2)cn1` [Compound 184], the “Evaluation on NAMPT inhibitory” value in assay [1] was “○”. In addition, at hSARM1, the inhibition at 30 µM was greater than 50%. Moreover, the minimal effective concentration in assay [2] lay within 0.01 to 0.1 µM.
With `O=C(NCCCOCCOCCCNC(=O)c1cnc2ccccc2c1)c1cccnc1` [Compound 185], in assay [1], the “Evaluation on NAMPT inhibitory” value was “○”. The inhibition at 30 µM on hSARM1 is greater than 25%. Also, the minimal effective concentration in assay [2] fell in the range of 0.1 to 1 µM.
Take `O=C(NCCCOCCOCCCNC(=O)c1cccnc1)c1ccccc1` [Compound 186]: the “Evaluation on NAMPT inhibitory” value in assay [1] is listed as “○”. The inhibition at 30 µM on hSARM1 is greater than 25%. Besides, the minimal effective concentration in assay [2] is 0.01 to 0.1 µM.
Consider `O=C(NCCCOCCOCCCNC(=O)c1ccc2ccccc2c1)c1cccnc1` [Compound 187], for which the “Evaluation on NAMPT inhibitory” value in assay [1] was “○”. The inhibition at 30 µM at hSARM1 is greater than 25%. Moreover, in assay [2], the “Evaluation on protection” value is “C (0.1 µM < C ≤ 1 µM)”.
Turning to `O=C(NCCCOCCOCCCNC(=O)c1ccc2ncccc2c1)c1cccnc1` [Compound 188], in assay [1], the “Evaluation on NAMPT inhibitory” value is reported as “○”. For the same molecule, the inhibition at 30 µM at hSARM1 was greater than 25%. Further, the minimal effective concentration in assay [2] is no more than 0.01 µM.
Regarding `O=C(NCCCCCCCCOCCO)c1cccnc1` [compound 4], the “Evaluation on NAMPT inhibitory” value in assay [1] is “○”. Also, on hSARM1, the inhibition at 30 µM is greater than 75%. Further, the “Evaluation on protection” value in assay [2] is “A (A ≤ 0.01 µM)”.
Consider `O=C(NCCCCCCCCOCCOCCO)c1cccnc1` [compound 6], for which the IC50 in assay [1] was no less than 100 nM. In addition, on hSARM1, the inhibition at 30 µM was greater than 75%. Besides, the minimal effective concentration in assay [2] was no more than 0.01 µM.
Consider `O=C(NCCCCCCCCOCCOCCOCCO)c1cccnc1` [compound 8], for which, in assay [1], the IC50 was no less than 100 nM. Also, the inhibition at 30 µM on hSARM1 is greater than 50%. For the same molecule, in assay [2], the minimal effective concentration was no more than 0.01 µM.
For the molecule `C#CCOCCOCCNC(=O)c1cccnc1` [compound 11], the “Evaluation on NAMPT inhibitory” value in assay [1] was “○”. Besides, the inhibition at 30 µM on hSARM1 was greater than 10%. In assay [2], the minimal effective concentration lay within 0.01 to 0.1 µM.
As to `O=C(NCCOCCOc1ccc(CNC(=O)c2ccccc2)cc1)c1cccnc1` [compound 13], in assay [1], the “Evaluation on NAMPT inhibitory” value is on record as “○”. On hSARM1, the inhibition at 30 µM is greater than 75%. Moreover, the minimal effective concentration in assay [2] lay in the range of 0.01 to 0.1 µM.
For the molecule `O=C(NCCCOc1ccc(CNC(=O)c2ccccc2)cc1)c1cccnc1` [compound 15], the IC50 in assay [1] is no less than 100 nM. For the same molecule, the inhibition at 30 µM on hSARM1 is greater than 75%. Besides, the minimal effective concentration in assay [2] was no more than 0.01 µM.
For `O=C(/C=C/c1cccnc1)NCCCOc1ccc(CNC(=O)c2ccccc2)cc1` [compound 16], the IC50 in assay [1] is no less than 100 nM. In addition, the inhibition at 30 µM at hSARM1 is greater than 75%. For the same molecule, the minimal effective concentration in assay [2] is no more than 0.01 µM.
